Source: patent EP4014997A1, “STARD1 INHIBITORS FOR THE TREATMENT OF LYSOSOMAL DISORDERS” (Consejo Superior de Investigaciones Científicas (CSIC), priority 2020, dated 2022)

Experiments:
[1] = tested on: PMH from Npc1+/+ mice; assay: Filipin and cytochrome c co-staining, confocal microscopy (mitochondrial cholesterol); assay type: cell-based, mouse; settings: 16 hours
Description: (§1) PMH were isolated by collagenase perfusion at a flow rate of 7-9ml/min and cultured at a density of 2×10^5 cells in 12-well plates coated with rat tail collagen. Hepatocytes were cultured in DMEM/F12 culture media (Gibco, 21331-020) supplemented with 10% FBS for the first 3 hours post isolation, together with 10.000U/ml Penicillin-Streptomycin (Gibco, 15140-122), 200mM L-Glutamine (Gibco, 25030-024), 7.5mM D-Glucose (Sigma, G6152) and 150mM Hepes pH 7.4 (Sigma,). For subsequent treatments, FBS was replaced for 1mM methionine (Sigma, M5308).
(§2) PMH from Npc1^+/+ and human Npc^+/+ control fibroblasts were treated with U18666A (2µg/ml) or HMβCD (2mM) for 16 hours. In some other cases, PMH from Npc1^-/- and Npc^-/- fibroblast from NPC patients were treated with HMβCD as above for control PMH.
(§3) PMH were fixed for 15min with 3.7% paraformaldehyde and permeabilized for 5min with 0.2% saponin dissolved in 0.5% BSA-fatty acid free (FAF) in PBS commercial buffer. Cells were blocked with 1% BSA FAF for 15minutes. Cytochrome c (Cytc) (BD Pharmigen, #556432) and Lamp2 (Abcam, #ab13524) primary antibodies were incubated overnight in BSA 1% followed by a secondary antibody for 1 hour at room temperature in BSA 0.1%. Filipin ([…], Sigma) was added during the secondary antibody incubation and the following steps were performed in the dark. Stained samples were embedded in fluoromont (Sigma) and digital images were taken in a Leica SP2 laser scanning confocal microscope equipped with UV excitation, an argon laser, a 633/1.32 OIL PH3 CS objective and a confocal pinhole set at 1 Airy unit. All the confocal images shown were single optical sections. Scale bar represents 25 µm. Percentage of cholesterol mass containing mitochondria was analyzed with the Colocalization nBits nimages plugin (Confocal Microscopy Unit, Facultad de Medicina, Universidad de Barcelona) in the ImageJ Software in 5 consecutive images of each experimental condition.

[2] = tested on: PMH from Npc1-/- mice; assay: as above; assay type: cell-based, mouse; settings: HMβCD 2mM, 16 hours
Description: as §1, §2, §3

[3] = tested on: Npc+/+ fibroblasts; assay: as above; assay type: cell-based, human; settings: HMβCD 2mM, 16 hours, co-treatment with U18666A; Npc+/+ fibroblasts from control patients
Description: (§4) Fibroblasts from patients with NPC disease used have been previously described (Torres et al., Redox Biol. 2017 Apr;11:60-72). Briefly, cultured human skin fibroblasts from control individuals (HSF; GM5659D) and patients with NPC disease were a generous gift from Thierry Levade, Laboratoire de Biochimie Metabolique, Institut Federatif de Biologie (CHU Toulouse, France) or obtained from Coriell Institute for Medical Research (GM03123, NJ, USA) and were grown at 37°C in 5% CO2. DMEM (Gibco) culture medium was supplemented with 10% fetal bovine serum (FBS, Gibco, 10-270-106) and 10.000U/ml Penicillin-Streptomycin (Gibco, 15140-122).
as §2
(§5) PMH were fixed for 15min with 3.7% paraformaldehyde and permeabilized for 5min with 0.2% saponin dissolved in 0.5% BSA-fatty acid free (FAF) in PBS commercial buffer. Cells were blocked with 1% BSA FAF for 15minutes. […] Percentage of cholesterol mass containing mitochondria was analyzed with the Colocalization nBits nimages plugin (Confocal Microscopy Unit, Facultad de Medicina, Universidad de Barcelona) in the ImageJ Software in 5 consecutive images of each experimental condition.

[4] = tested on: Npc-/- fibroblasts from NPC patients; assay: as above; assay type: cell-based, human; settings: HMβCD 2mM, 16 hours
Description: as §4
PMH from Npc1^+/+ and human Npc^+/+ control fibroblasts were treated with U18666A (2µg/ml) or HMβCD (2mM) for 16 hours. In some other cases, PMH from Npc1^-/- and Npc^-/- fibroblast from NPC patients were treated with HMβCD as above for control PMH. […]
as §5, with “buffer.” for “buffer. Cells were blocked with 1% BSA FAF for 15minutes.”

[5] = tested on: STARD1; assay: Western blot of STARD1 protein expression in primary mouse hepatocytes; assay type: cell-based; settings: 16 hours
Description: as §2
(§6) 100mg of liver were homogenized with a pestle homogenizer in 1ml of homobuffer (70mM saccharose, 220mM mannitol, 2mM Tris-HCI pH 7.4, 0,1mM EDTA, 0.1% fatty acid free BSA) supplemented with protease and phosphatase inhibitors (Roche). Liver homogenates were diluted 4 times with RIPA lysis buffer (Sigma) with anti-proteases and anti-phosphatases. Cells were washed with PBS and lysed with ice-cold RIPA lysis buffer supplemented with protease and phosphatase inhibitors. Samples were incubated 15min at 4°C, vortexed and spinned down for 5min at 10000rpm. All supernatants were collected and quantified for protein concentration using Quick-Bradford reagent (Bio-Rad) and 20-50µg of protein were subjected to 4-12% SDS-polyacrylamide gel electrophoresis (SDS-PAGE) (Bio-Rad, XT-Criterion). Proteins were electrotransferred at 4°C onto Hybond ECL nitrocellulose membranes (Amersham) and 5% BSA solution in TBS-Tween was used to block the membranes for 1h at room temperature. Membranes were incubated overnight with the following primary antibodies: anti-PDI (Cell Signaling, 24465), anti-CHOP (Cell Signaling, 2895S), anti-Phospho eiF2A (Cell Signaling, 9721S), anti-eiF2A (Cell Signaling, 9722) and anti-STARD1 (Abcam, ab58013), anti-BIP (Stressgen, SPA826), anti-XBP1 (Santa Cruz, CS-8015) and anti-Mln64 (Santa Cruz SC-292868), ACDAse (Sigma, SAB3500293), LRH-1 (Santa Cruz, Cs-393369) and anti-β-Actin HRP-conjugated (Sigma, A3854). Membranes were thoroughly washed with TBS-Tween and incubated for 45min with their respective HRP-conjugated secondary antibodies. Pierce ECL Western Blotting Substrate (Thermo Scientific) was used to develop the membranes. Images were digitally captured by LAS4000 (GE Healthcare) and optical density was analyzed with ImageJ software.

[6] = tested on: STARD1; assay: Western blot of STARD1 protein expression in human fibroblasts; assay type: cell-based; settings: 16 hours
Description: as §2
(§7) Fibroblasts from NPC patients were transfected with cDNA to overexpress ACDase (ASAH1) (SEQ ID NO: 5; MGC Human ASAH1 Sequence-Verified cDNA Accession: BC016481 Clone ID: 3923451) commercially purchased from GE Dharmacon. Transfection was performed using Lipofectamine2000 (Invitrogen). Briefly, 250000 fibroblasts were incubated with the transfection mixtures containing 250ng of the sobrexpression ACDase vector or the scrambled control-GFP vector. Cells were assayed 48 h after transfection for mRNA and protein levels. SEQ ID NO: 5 >ENA|BC016481|BC016481.1 Homo sapiens N-acylsphingosine amidohydrolase (acid ceramidase) 1, mRNA (cDNA clone MGC:9327 IMAGE:3923451), complete cds. [formula] [formula] [formula]
(§8) 100mg of liver were homogenized with a pestle homogenizer in 1ml of homobuffer (70mM saccharose, 220mM mannitol, 2mM Tris-HCI pH 7.4, 0,1mM EDTA, 0.1% fatty acid free BSA) supplemented with protease and phosphatase inhibitors (Roche). Liver homogenates were diluted 4 times with RIPA lysis buffer (Sigma) with anti-proteases and anti-phosphatases. Cells were washed with PBS and lysed with ice-cold RIPA lysis buffer supplemented with protease and phosphatase inhibitors. Samples were incubated 15min at 4°C, vortexed and spinned down for 5min at 10000rpm. All supernatants were collected and quantified for protein concentration using Quick-Bradford reagent (Bio-Rad) and 20-50µg of protein were subjected to 4-12% SDS-polyacrylamide gel electrophoresis (SDS-PAGE) (Bio-Rad, XT-Criterion). Proteins were electrotransferred at 4°C onto Hybond ECL nitrocellulose membranes (Amersham) and 5% BSA solution in TBS-Tween was used to block the membranes for 1h at room temperature. […] Images were digitally captured by LAS4000 (GE Healthcare) and optical density was analyzed with ImageJ software.

[7] = tested on: MLN64; assay: Western blot of MLN64 protein expression in primary mouse hepatocytes; assay type: cell-based; settings: HMβCD 2mM, 16 hours, co-treatment with U18666A; PMH from Npc1+/+ mice
Description: as §2, §8

[8] = tested on: MLN64; assay: Western blot of MLN64 protein expression in human fibroblasts; assay type: cell-based; settings: HMβCD 2mM, 16 hours, co-treatment with U18666A; control Npc+/+ fibroblasts
Description: as §2
as §7, with “SEQ ID NO: 5 >ENA|BC016481|BC016481.1 Homo sapiens N-acylsphingosine amidohydrolase (acid ceramidase) 1, mRNA (cDNA clone MGC:9327 IMAGE:3923451), complete cds. [formula] [formula] [formula]” left out
100mg of liver were homogenized with a pestle homogenizer in 1ml of homobuffer (70mM saccharose, 220mM mannitol, 2mM Tris-HCI pH 7.4, 0,1mM EDTA, 0.1% fatty acid free BSA) supplemented with protease and phosphatase inhibitors (Roche). […] All supernatants were collected and quantified for protein concentration using Quick-Bradford reagent (Bio-Rad) and 20-50µg of protein were subjected to 4-12% SDS-polyacrylamide gel electrophoresis (SDS-PAGE) (Bio-Rad, XT-Criterion). […] Images were digitally captured by LAS4000 (GE Healthcare) and optical density was analyzed with ImageJ software.

[9] = tested on: ACDase; assay: Western blot of ACDase protein expression in primary mouse hepatocytes; assay type: cell-based; settings: 16 hours
Description: as §2, §6

[10] = tested on: ACDase; assay: Western blot of ACDase protein expression in human fibroblasts; assay type: cell-based; settings: 16 hours
Description: as §2, §7, §8

[11] = tested on: Npc1 gene-defective (Npc1-/-) mice; settings: cited from earlier work
[12] = tested on: NPC child patients; settings: intravenous instillation 2500 mg/kg per time, 1 to 3 times per week, more than 1 year; cited from earlier work
[13] = tested on: PMH from Npc1+/+ mice; assay: Filipin and Lamp2 co-staining, confocal microscopy (lysosomal cholesterol); assay type: cell-based, mouse; settings: U18666A 2µg/ml, 16 hours
Description: as §1, §2, §5

[14] = tested on: ER stress markers; assay: Western blot of ER stress markers in primary mouse hepatocytes; assay type: cell-based; settings: incubation of Npc1+/+ PMH with U18666A
Description: as §2, §8

[15] = tested on: patients; settings: NPC patients; cited from earlier work
[16] = tested on: ER stress markers (BIP, PDI and CHOP); assay: Western blot of ER stress markers in human fibroblasts; assay type: cell-based; settings: control Npc+/+ fibroblasts
Description: as §8

[17] = HMβCD 2mM, co-treatment with U18666A, PMH from Npc1+/+ mice
[18] = HMβCD 2mM, PMH from Npc1-/- mice, no U18666A
[19] = HMβCD 2mM, co-treatment with U18666A, control Npc+/+ fibroblasts
[20] = HMβCD 2mM, Npc-/- fibroblasts from NPC patients, no U18666A
[21] = U18666A 2µg/ml, PMH from Npc1+/+ mice

Compound: CC(O)COC[C@H]1O[C@@H]2O[C@H]3[C@H](O)[C@@H](O)[C@@H](O[C@H]4[C@H](O)[C@@H](O)[C@@H](O[C@H]5[C@H](O)[C@@H](O)[C@@H](O[C@H]6[C@H](O)[C@@H](O)[C@@H](O[C@H]7[C@H](O)[C@@H](O)[C@@H](O[C@H]8[C@H](O)[C@@H](O)[C@@H](O[C@H]1[C@H](O)[C@H]2O)O[C@@H]8COCC(C)O)O[C@@H]7COCC(C)O)O[C@@H]6COCC(C)O)O[C@@H]5COCC(C)O)O[C@@H]4COCC(C)O)O[C@@H]3COCC(C)O (stereo partly drawn) [HMβCD, 2-hydroxypropyl-β-cyclodextrin]
- U18666A-induced cholesterol accumulation and trafficking to mitochondria [1, 17]: prevented U18666A-induced cholesterol accumulation and trafficking to mitochondria
- mitochondrial cholesterol increase [2]: exhibited the same changes induced by HMβCD
- U18666A-induced cholesterol accumulation and trafficking to mitochondria [3]: prevented U18666A-induced cholesterol accumulation and trafficking to mitochondria
- mitochondrial cholesterol increase [4]: exhibited the same changes induced by HMβCD
- increase of STARD1 induced by U18666A [5, 17]: reverse the increase of STARD1
- expression levels of STARD1 [5, 18]: exhibited the same changes induced by HMβCD
- increase of STARD1 induced by U18666A [6, 19]: reverse the increase of STARD1
- expression levels of STARD1 [6, 20]: exhibited the same changes induced by HMβCD
- increased expression of MLN64 induced by U18666A [7]: prevented the increased expression of MLN64
- increased expression of MLN64 induced by U18666A [8]: prevented the increased expression of MLN64
- repression of ACDase induced by U18666A [9, 17]: reverse the increase of STARD1 and the repression of ACDase
- expression levels of ACDase [9, 18]: exhibited the same changes induced by HMβCD
- repression of ACDase induced by U18666A [10, 19]: reverse the increase of STARD1 and the repression of ACDase
- expression levels of ACDase [10, 20]: exhibited the same changes induced by HMβCD
- improving effect, direct administration into the brain compared with systemic administration ([11]; directly administered into the brain, Npc1-/- mice): increased a few hundred times
- medical state or survival ([11]; intravenously administered, Npc1-/- mice): effective in improving the medical state or prolonging survival
- crossing of the blood brain barrier ([11]; mouse, in vivo): inability of HPBCD to cross the blood brain barrier
- nervous symptom [12]: saw no improvement
- side effects [12]: severe side effects have been observed
- splenomegaly and brain wave [12]: certain effect of reduction of splenomegaly and improvement in a brain wave

Compound: CCN(CC)CCO[C@H]1CC[C@@]2(C)C(=CC[C@@H]3[C@@H]2CC[C@]2(C)C(=O)CC[C@@H]32)C1 [U18666A]
- lysosomal cholesterol accumulation (filipin and Lamp2 staining) [13]: significantly increased lysosomal cholesterol accumulation
- accumulation of cholesterol in mitochondria (colocalization of filipin and CytC staining) ([1]; U18666A 2µg/ml, Npc1+/+ PMH): stimulated the accumulation of cholesterol in mitochondria
- STARD1 expression [5, 21]: significantly increased STARD1
- STARD1 expression ([6]; U18666A 2µg/ml, Npc+/+ fibroblasts): significantly increased STARD1
- expression of ACDase [9, 21]: decreased the expression of ACDase
- expression of ACDase ([10]; U18666A 2µg/ml, control Npc+/+ fibroblasts): decreased the expression of ACDase
- ER stress markers [14]: failed to induce ER stress markers

Compound: CCCCN1C[C@H](O)[C@@H](O)[C@H](O)[C@H]1CO [miglustat]
- life span of patients [15]: extends the life span of patients

Compound: tunicamycin
- markers of ER stress (BIP, PDI and CHOP) [16]: induced markers of ER stress
